Measured values taken from patent publication US5502035A, “N-terminus modified analogs of LHRH” (Tap Holdings Inc., priority 1994, dated 1996).
Non-standard residues stand in square brackets, D forms with d. Residues, ends and D or L forms follow the SMILES beside them. *: point of attachment. dPhe(4-Cl) = N[C@H](Cc1ccc(Cl)cc1)C(=O)O; d2Nal = N[C@H](Cc1ccc2ccccc2c1)C(=O)O; d(hCit) = NC(=O)NCCCC[C@@H](N)C(=O)O; Lys(iPr) = CC(C)NCCCC[C@H](N)C(=O)O; NMeY = CN[C@@H](Cc1ccc(O)cc1)C(=O)O; d3Pal = N[C@H](Cc1cccnc1)C(=O)O; Nicotinoyl = O=C(c1cccnc1)*; X1 = O=C([C@@H]1CCCO1)*; GABA = NCCCC(=O)O; βAla = NCCC(=O)O; Sar = CNCC(=O)O

Molecular target: T1, LHRH (Rattus norvegicus, UniProt P30969)
T1 construct: endogenous in cells; host or cells: rat pituitary cells (own knowledge of the cited Haviv 1989 method)
T1 sequence (P30969 1-327): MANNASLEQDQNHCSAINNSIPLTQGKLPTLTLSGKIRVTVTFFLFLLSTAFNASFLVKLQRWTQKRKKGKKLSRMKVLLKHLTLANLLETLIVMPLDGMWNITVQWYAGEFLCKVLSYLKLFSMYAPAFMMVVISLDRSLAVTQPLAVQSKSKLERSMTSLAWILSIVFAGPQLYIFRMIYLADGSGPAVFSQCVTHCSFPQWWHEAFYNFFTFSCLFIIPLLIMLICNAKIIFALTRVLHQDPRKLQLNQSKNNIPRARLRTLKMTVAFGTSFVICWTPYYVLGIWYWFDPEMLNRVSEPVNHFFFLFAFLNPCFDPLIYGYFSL
Assay: in vitro test for LHRH antagonist potency (pA2)
Assay type: cell-based
Conditions: negative logarithm of the antagonist concentration required to shift the response curve produced by the agonist leuprolide to two-fold higher concentration
How it was run: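 Rat LHRH receptor in vitro functional test; pA2 = negative log of the antagonist concentration shifting the leuprolide agonist response curve to two-fold higher concentration.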

Structure (SMILES)	Kb [nM]
CC(C)C[C@H](NC(=O)[C@@H](CCCCNC(N)=O)NC(=O)[C@H](Cc1ccc(O)cc1)NC(=O)[C@H](CO)NC(=O)[C@@H](Cc1cccnc1)NC(=O)[C@@H](Cc1ccc(Cl)cc1)NC(=O)[C@@H](Cc1ccc2ccccc2c1)NC(=O)CNC(=O)[C@@H]1CCCO1)C(=O)N[C@@H](CCCNC(=N)N)C(=O)N1CCC[C@H]1C(=O)N[C@H](C)C(N)=O [Example 95, N-(S)-2-Tetrahydrofuroyl-Gly-D2Nal-D4ClPhe-D3Pal-Ser-Tyr-DHcit-Leu-Arg-Pro- DAlaNH2] (X1-G[d2Nal][dPhe(4-Cl)][d3Pal]SY[d(hCit)]LRP[dA]-NH2)	0.00759
CC(C)C[C@H](NC(=O)[C@@H](CCCCNC(=O)c1cccnc1)NC(=O)[C@H](Cc1ccc(O)cc1)N(C)C(=O)[C@H](CO)NC(=O)[C@@H](Cc1cccnc1)NC(=O)[C@@H](Cc1ccc(Cl)cc1)NC(=O)[C@@H](Cc1ccc2ccccc2c1)NC(=O)CCNC(=O)[C@@H]1CCCO1)C(=O)N[C@@H](CCCCNC(C)C)C(=O)N1CCC[C@H]1C(=O)N[C@H](C)C(N)=O [Example 96, N (S)-2-Tetrahydrofuroyl-Bala-D2Nal-D4ClPhe-D3Pal-Ser-NMeTyr-DLys(Nic)-Leu-Lys(Isp)-Pro-DAlaNH2] ({X1-βAla}-[d2Nal][dPhe(4-Cl)][d3Pal]S[NMeY][dK](Nicotinoyl)L[Lys(iPr)]P[dA]-NH2)	0.0275
CC(C)C[C@H](NC(=O)[C@@H](CCCCNC(=O)c1cccnc1)NC(=O)[C@H](Cc1ccc(O)cc1)N(C)C(=O)[C@H](CO)NC(=O)[C@@H](Cc1cccnc1)NC(=O)[C@@H](Cc1ccc(Cl)cc1)NC(=O)[C@@H](Cc1ccc2ccccc2c1)NC(=O)CCCNC(=O)[C@@H]1CCCO1)C(=O)N[C@@H](CCCCNC(C)C)C(=O)N1CCC[C@H]1C(=O)N[C@H](C)C(N)=O [Example 97, N (S)-2-Tetrahydrofuroyl-Gaba-D2Nal-D4ClPhe-D3Pal-Ser-NMeTyr-DLys(Nic)-Leu-Lys(Isp)-Pro-DAlaNH2] ({X1-GABA}-[d2Nal][dPhe(4-Cl)][d3Pal]S[NMeY][dK](Nicotinoyl)L[Lys(iPr)]P[dA]-NH2)	0.0339
CC(C)C[C@H](NC(=O)[C@@H](CCCCNC(=O)c1cccnc1)NC(=O)[C@H](Cc1ccc(O)cc1)N(C)C(=O)[C@H](CO)NC(=O)[C@@H](Cc1cccnc1)NC(=O)[C@@H](Cc1ccc(Cl)cc1)NC(=O)[C@@H](Cc1ccc2ccccc2c1)NC(=O)CN(C)C(=O)[C@@H]1CCCO1)C(=O)N[C@@H](CCCCNC(C)C)C(=O)N1CCC[C@H]1C(=O)N[C@H](C)C(N)=O [Example 99, N (S)-2-Tetrahydrofuroyl-Sar-D2Nal-D4ClPhe-D3Pal-Ser-NMeTyr-DLys(Nic),Leu-Lys(Isp)-Pro-DAlaNH2] (X1-[Sar][d2Nal][dPhe(4-Cl)][d3Pal]S[NMeY][dK](Nicotinoyl)L[Lys(iPr)]P[dA]-NH2)	0.0117
CC(C)C[C@H](NC(=O)[C@@H](CCCCNC(=O)c1cccnc1)NC(=O)[C@H](Cc1ccc(O)cc1)N(C)C(=O)[C@H](CO)NC(=O)[C@@H](Cc1cccnc1)NC(=O)[C@@H](Cc1ccc(Cl)cc1)NC(=O)[C@@H](C)NC(=O)CNC(=O)[C@@H]1CCCO1)C(=O)N[C@@H](CCCCNC(C)C)C(=O)N1CCC[C@H]1C(=O)N[C@H](C)C(N)=O [Example 100, N (S)-2-Tetrahydrofuroyl-Gly-DAla-D4ClPhe-D3Pal-Ser-NMeTyr-DLys(Nic)-Leu-Lys(Isp)-Pro-DAlaNH2] (X1-G[dA][dPhe(4-Cl)][d3Pal]S[NMeY][dK](Nicotinoyl)L[Lys(iPr)]P[dA]-NH2)	21.9
CC(C)C[C@H](NC(=O)[C@@H](CCCCNC(=O)c1cccnc1)NC(=O)[C@H](Cc1ccc(O)cc1)N(C)C(=O)[C@H](CO)NC(=O)[C@@H](Cc1cccnc1)NC(=O)[C@@H](Cc1ccc(Cl)cc1)NC(=O)CN(C)C(=O)CNC(=O)[C@@H]1CCCO1)C(=O)N[C@@H](CCCCNC(C)C)C(=O)N1CCC[C@H]1C(=O)N[C@H](C)C(N)=O [Example 101, N (S)-2-Tetrahydrofuroyl-Gly-Sar-D4ClPhe-D3Pal-Ser-NMeTyr-DLys(Nic)-Leu-Lys(Isp)-Pro-DAlaNH2] (X1-G[Sar][dPhe(4-Cl)][d3Pal]S[NMeY][dK](Nicotinoyl)L[Lys(iPr)]P[dA]-NH2)	42.7
